# From patent publication US20240277890A1, “ANTIMICROBIAL ARTICLES COMPRISING POLYURETHANE” (Amicoat AS, priority 2021, published 2024)
# Experiments:
# [1] = tested on: Shigella sp - antibiotic-susceptible clinical isolate; experiment: MIC microbroth dilution (CLSI); format: cell-based
# [2] = tested on: Staphylococcus aureus FDA486; experiment: Murine skin infection model, one day topical treatment; format: in vivo, mice; conditions: 2% cream; compared to placebo cream, Fucidin ointment 2% and Bactroban cream 2%
# Protocol: The skin of mice was infected with Staphylococcus aureus or Streptococcus pyogenes and subsequently given a total of three treatments at three hourly intervals. Three hours after the last treatment, skin biopsies were collected and the number of colony forming units (CFUs) present in the skin sample was determined. Results are shown in FIGS. 3, 4 and 5 expressed as the number of colony forming units per mouse.
# [3] = tested on: Candida albicans ATCC90028 - reference strain
# [4] = tested on: Trichophyton mentagrophytes - G.R. Micro collection
# [5] = tested on: Escherichia coli ATCC25922 - antibiotic-susceptible type strain; conditions: ATCC25922
# [6] = tested on: Enterobacter sp - antibiotic-susceptible clinical isolate
# [7] = tested on: Enterobacter sp - multi-drug resistant clinical isolate
# [8] = tested on: Pseudomonas aeruginosa - multi-drug resistant clinical isolate
# [9] = tested on: Stenotrophomonas maltophilia - antibiotic-susceptible clinical isolate
# [10] = tested on: Haemophilus influenzae β-lactamase negative ampicillin-resistant clinical isolate
# [11] = tested on: Staphylococcus aureus ATCC 25923 - antibiotic-susceptible control strain
# [12] = tested on: Staphylococcus aureus ATCC 43300 - methicillin-resistant control strain
# [13] = tested on: Staphylococcus aureus - methicillin-resistant clinical isolate
# [14] = tested on: Staphylococcus aureus - multi-drug-resistant clinical isolate
# [15] = tested on: Staphylococcus aureus - teicoplanin-intermediate clinical isolate
# [16] = tested on: Enterococcus faecalis - ATCC 29212 antibiotic-susceptible control strain; conditions: ATCC 29212
# [17] = tested on: Enterococcus faecalis high-level gentamicin-resistant clinical isolate
# [18] = tested on: Enterococcus faecium vancomycin-resistant (VanA) clinical isolate
# [19] = tested on: Enterococcus faecium vancomycin-resistant (VanB) clinical isolate
# [20] = tested on: Streptococcus pyogenes - Macrolide (MLS) resistant clinical isolate
# [21] = tested on: Corynebacterium jeikeium - antibiotic-susceptible clinical isolate
# [22] = tested on: MU50 Staphylococcus aureus (MRSA) - VISA type strain
# [23] = tested on: EMRSA16 Staphylococcus aureus (MRSA) - SSCmec type 2; conditions: EMRSA16 - SSCmec type 2
# [24] = tested on: EMRSA1 Staphylococcus aureus (MRSA) - SSCmec type 3; conditions: EMRSA1 - SSCmec type 3
# [25] = tested on: Streptococcus agalactiae - antibiotic-susceptible clinical isolate
# [26] = tested on: Streptococcus agalactiae - macrolide-resistant clinical isolate
# [27] = tested on: Group C Streptococcus - antibiotic-susceptible clinical isolate
# [28] = tested on: Group G Streptococcus - macrolide-resistant clinical isolate
# [29] = tested on: Streptococcus bovis - macrolide-resistant clinical isolate
# [30] = tested on: Staphylococcus aureus, strain ATCC 25923; conditions: ATCC 25923
# [31] = tested on: Methicillin resistant Staphylococcus epidermidis (MRSE) strain ATCC 27626; conditions: ATCC 27626
# [32] = tested on: C. albicans
# [33] = tested on: E. coli
# [34] = tested on: P. aeruginosa
smiles,measurement,setting,value
CCCCCCNC(=O)[C@H](CCCNC(=N)N)NC(=O)[C@H](Cc1c(C(C)(C)C)[nH]c2c(C(C)(C)C)cc(C(C)(C)C)cc12)NC(=O)[C@@H](N)CCCNC(=N)N [Compound 8],MIC,[1],4 µg/mL
same,number of CFUs in skin biopsy,[2],more effective at reducing the number of CFUs than the placebo and fucidin or bactroban
same,MIC,[3],4 µg/mL
same,MIC,[4],4 µg/mL
same,MIC,[5],4 µg/mL
same,MIC,[6],8 µg/mL
same,MIC,[7],8 µg/mL
same,MIC,[8],4 µg/mL
same,MIC,[9],4 µg/mL
same,MIC,[10],8 µg/mL
same,MIC,[11],4 µg/mL
same,MIC,[12],4 µg/mL
same,MIC,[13],4 µg/mL
same,MIC,[14],4 µg/mL
same,MIC,[15],4 µg/mL
same,MIC,[16],4 µg/mL
same,MIC,[17],8 µg/mL
same,MIC,[18],4 µg/mL
same,MIC,[19],4 µg/mL
same,MIC,[20],8 µg/mL
same,MIC,[21],4 µg/mL
same,MIC,[22],4 µg/mL
same,MIC,[23],4 µg/mL
same,MIC,[24],4 µg/mL
same,MIC,[25],8 µg/mL
same,MIC,[26],8 µg/mL
same,MIC,[27],8 µg/mL
same,MIC,[28],8 µg/mL
same,MIC,[29],2 µg/mL
same,S. aureus (MIC),[30],2 µg/mL
same,MRSE (MIC),[31],<1 µg/mL
same,C. albicans (MIC),[32],5 µg/mL
same,E. coli (MIC),[33],5 µg/mL
same,P. aeruginosa (MIC),[34],5 µg/mL
